# pIC50: −log10 of the molar value.
# Legend:
# Assay type in all cases: cell-based
# [1] = system: MCF-7 cells; experiment: Breast Cancer Cell Viability Assay (MCF7 Viability Assay); conditions: 5 days' compound exposure, CellTiter-Glo; for pIC50: Homo sapiens, MCF7, 120 h
# Procedure: MCF-7 cells were adjusted to a concentration of 20,000 cells per mL in RPMI containing 10% FBS and 20 mM HEPES. 16 microliters of the cell suspension (320 cells) was added to each well of a 384 well plate, and the cells were incubated overnight to allow the cells to adhere. The following day an eleven point, serial semilog dilution of each compound was added to the cells in 16 μL at a final concentration ranging from 0.3-0.000003 μM. After 5 days' compound exposure, 16 μL of CellTiter-GLo (Promega, Madison Wis.) was added to the cells the relative luminescence units (RLUs) of each well was determined. CellTiter-Glo added to 32 μL of medium without cells was used to obtain a background value. The Percent viability of each sample was determined as follows: (RLU sample-RLU background/RLU untreated cells-RLU background)×100=% viability.
# [2] = target: T1, ER-α (Homo sapiens, UniProt P03372); experiment: ER-α In Cell Western Assay (ER1D5); conditions: MCF-7 cells, ER1D5 antibody, 4 or 24 hr post compound addition, read-out: ER In-Cell Western Assay (ER1D5); for Emax: MCF7, Max Response; for DC50: IC50
# T1 construct: endogenous in cells; host or cells: MCF-7
# T1 sequence (P03372 1-595): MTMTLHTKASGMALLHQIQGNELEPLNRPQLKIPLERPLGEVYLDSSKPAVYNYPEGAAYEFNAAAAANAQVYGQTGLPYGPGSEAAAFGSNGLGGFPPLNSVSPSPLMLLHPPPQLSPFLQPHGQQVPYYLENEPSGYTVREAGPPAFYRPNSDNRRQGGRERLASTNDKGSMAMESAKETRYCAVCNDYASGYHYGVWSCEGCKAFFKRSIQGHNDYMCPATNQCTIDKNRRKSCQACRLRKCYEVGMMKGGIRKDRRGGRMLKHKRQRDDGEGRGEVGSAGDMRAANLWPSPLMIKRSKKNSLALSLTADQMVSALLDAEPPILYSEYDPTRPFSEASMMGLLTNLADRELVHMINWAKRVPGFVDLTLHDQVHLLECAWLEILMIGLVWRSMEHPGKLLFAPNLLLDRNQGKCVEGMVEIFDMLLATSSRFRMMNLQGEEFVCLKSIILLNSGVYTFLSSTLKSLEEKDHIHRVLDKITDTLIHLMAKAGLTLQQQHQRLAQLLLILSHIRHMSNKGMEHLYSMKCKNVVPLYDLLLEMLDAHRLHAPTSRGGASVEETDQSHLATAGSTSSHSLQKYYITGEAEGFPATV
# Procedure: (§1) MCF-7 cells were adjusted to a concentration of 200,000 cells per mL in RPMI containing 10% charcoal-stripped FBS and 20 mM HEPES. 16 microliters of the cell suspension (3200 cells) was added to each well of a poly-D-lysine 384 well plate, and the cells were incubated overnight to allow the cells to adhere. The following day an eleven point, serial semilog dilution of each compound was added to the cells in 16 μL at a final concentration ranging from 0.3-0.000003 μM. At 4 or 24 hr post compound addition, the cells were fixed (10% formalin in PBS) for 20 minutes. Cells were permeabalized in PBS 0.1% Triton and blocked with LICOR blocking buffer (50 μl/well, 90′). The wells were then incubated overnight at 4° C. with ER1D5 (Santa Cruz Biotechnology) diluted 1:100 in LICOR blocking buffer/0.1% Tween-20. Wells which were treated with blocking buffer with Tween but no antibody were used as a background control. Wells were washed with 0.1% Tween-20/PBS and then incubated in goat anti-mouse IRDye™ 800CW (LICOR Inc.; 1:1000) and DRAQ5 DNA dye (1:2000 for 2 mM stock) diluted in LICOR blocking buffer containing 0.1% Tween-20 and 0.01% SDS for 60 minutes. Cells were washed (50 μl/well, 5′ each) in 0.1% Tween-20/PBS. Plates were scanned on a LICOR Odyssey infrared imaging system. Integrated intensities in the 800 nm channel and 700 nm channel were measured to determine levels of ER and DNA respectively. Percent ER levels were determined as follows: (Integrated intensity 800 nm sample/integrated intensity 700 nm sample)/(Integrated intensity 800 nm untreated cells/integrated intensity 700 nm untreated cells)×100=% ER levels.
# [3] = target: T1, ER-α; experiment: ER-α in Cell Western Assay (SP1); conditions: MCF-7 cells, SP1 rabbit monoclonal Ab, 4 or 24 hr post compound addition, read-out: ER In-Cell Western Assay (SP1); for Emax: MCF7, Max Response; for DC50: IC50
# Procedure: as §1, with “with SP1 rabbit monoclonal Ab (Thermo Scientific)” for “with ER1D5 (Santa Cruz Biotechnology)”, “diluted 1:1000” for “diluted 1:100”, “goat anti-rabbit” for “goat anti-mouse”
SMILES,pIC50 [1],Emax [2],DC50 [2],Emax [3],DC50 [3],MCF7 Viability Assay Max Response [1]
"CC1=C(c2cccc(O)c2)[C@@H](c2ccc(OC[C@H](C)N3CC[C@@H](C)C3)cc2)Oc2ccc(O)cc21 (single isomer, unassigned) [Example 2b]",< 9.00,≥ 65%,> 1 nM,≥ 85%,> 1 nM,++ (++ = a single % value ≧50%)
"CC1=C(c2cccc(O)c2)C(c2ccc(OC[C@H](C)N3CCCC3)cc2)Oc2ccc(O)cc21 (stereo partly drawn) [Example 6, 3-(3-Hydroxyphenyl)-4-methyl-2-(4-((S)-2-(pyrrolidin-1-yl)propoxy)phenyl)-2H-chromen-6-ol]",≥ 9.00,≥ 65%,≤ 1 nM,60 to 85%,≤ 1 nM,++ (++ = a single % value ≧50%)
"CC1=C(c2cccc(O)c2)C(c2ccc(OCCN3CCCC3)cc2)Oc2cc(O)ccc21 (stereo not drawn) [Example 26, 3-(3-Hydroxyphenyl)-4-methyl-2-(4-(2-(pyrrolidin-1-yl)ethoxy)phenyl)-2H-chromen-7-ol]",≥ 9.00,40 to 65%,≤ 1 nM,60 to 85%,≤ 1 nM,++ (++ = a single % value ≧50%)
"CC1=C(c2ccccc2)C(c2ccc(OC[C@H](C)N3CC[C@@H](C)C3)cc2)Oc2ccc(O)cc21 (stereo partly drawn) [Example 29, 4-Methyl-2-(4-((S)-2-((R)-3-methylpyrrolidin-1-yl)propoxy)phenyl)-3-phenyl-2H-chromen-6-ol]",≥ 9.00,≥ 65%,≤ 1 nM,60 to 85%,≤ 1 nM,++ (++ = a single % value ≧50%)
"CC1=C(c2cccc(O)c2)C(c2ccc(OC[C@@H](C)N3CCCC3)cc2)Oc2ccc(O)cc21 (stereo partly drawn) [Example 7, 3-(3-Hydroxyphenyl)-4-methyl-2-(4-((R)-2-(pyrrolidin-1-yl)propoxy)phenyl)-2H-chromen-6-ol]",≥ 9.00,< 40%,> 1 nM,< 60%,≤ 1 nM,+ (+ = a single % value <50%)
"CC1=C(c2cccc(O)c2)C(c2ccc(OCCN3CC[C@@H](C)C3)cc2)Oc2ccc(O)cc21 (stereo partly drawn) [Example 8, 3-(3-Hydroxyphenyl)-4-methyl-2-(4-(2-((R)-3-methylpyrrolidin-1-yl)ethoxy)phenyl)-2H-chromen-6-ol]",≥ 9.00,≥ 65%,≤ 1 nM,≥ 85%,≤ 1 nM,++ (++ = a single % value ≧50%)
"CC1=C(c2ccc(O)cc2)C(c2ccc(OC[C@H](C)N3CC[C@@H](C)C3)cc2)Oc2ccc(O)cc21 (stereo partly drawn) [Example 31, 3-(4-Hydroxyphenyl)-4-methyl-2-(4-((S)-2-((R)-3-methylpyrrolidin-1-yl)propoxy)phenyl)-2H-chromen-6-ol]",≥ 9.00,≥ 65%,≤ 1 nM,≥ 85%,≤ 1 nM,++ (++ = a single % value ≧50%)

# Further lines, with some results ahead:
pIC50 [1],Emax [2],DC50 [2],Emax [3],DC50 [3],SMILES,MCF7 Viability Assay Max Response [1]
≥ 9.00,≥ 65%,≤ 1 nM,≥ 85%,≤ 1 nM,"CC1=C(c2ccc(O)c(F)c2)C(c2ccc(OC[C@H](C)N3CC[C@@H](C)C3)cc2)Oc2ccc(O)cc21 (stereo partly drawn) [Example 33, 3-(3-Fluoro-4-hydroxyphenyl)-4-methyl-2-(4-((S)-2-((R)-3-methylpyrrolidin-1-yl)propoxy)phenyl)-2H-chromen-6-ol]",++ (++ = a single % value ≧50%)
≥ 9.00,40 to 65%,≤ 1 nM,60 to 85%,≤ 1 nM,"CC1=C(c2cccc(O)c2)C(c2ccc(OC[C@H](C)N3CCCCC3)cc2)Oc2ccc(O)cc21 (stereo partly drawn) [Example 1, 3-(3-Hydroxyphenyl)-4-methyl-2-(4-((S)-2-(piperidin-1-yl)propoxy)phenyl)-2H-chromen-6-ol]",++ (++ = a single % value ≧50%)
≥ 9.00,40 to 65%,≤ 1 nM,60 to 85%,≤ 1 nM,"CC1=C(c2cccc(O)c2)C(c2ccc(OC[C@H](C)N3CCCCCC3)cc2)Oc2ccc(O)cc21 (stereo partly drawn) [Example 15, 2-(4-((S)-2-(Azepan-1-yl)propoxy)phenyl)-3-(3-hydroxyphenyl)-4-methyl-2H-chromen-6-ol]",++ (++ = a single % value ≧50%)
≥ 9.00,40 to 65%,≤ 1 nM,60 to 85%,≤ 1 nM,"CC1=C(c2cccc(O)c2)C(c2ccc(OC[C@H](C)N3CCC3)cc2)Oc2ccc(O)cc21 (stereo partly drawn) [Example 37, 2-(4-((S)-2-(Azetidin-1-yl)propoxy)phenyl)-3-(3-hydroxyphenyl)-4-methyl-2H-chromen-6-ol]",++ (++ = a single % value ≧50%)
≥ 9.00,40 to 65%,≤ 1 nM,60 to 85%,≤ 1 nM,"CC1=C(c2cccc(O)c2)C(c2ccc(OCCN3CCC(C)CC3)cc2)Oc2ccc(O)cc21 (stereo not drawn) [Example 21, 3-(3-Hydroxyphenyl)-4-methyl-2-(4-(2-(4-methylpiperidin-1-yl)ethoxy)phenyl)-2H-chromen-6-ol]",++ (++ = a single % value ≧50%)
≥ 9.00,40 to 65%,≤ 1 nM,< 60%,≤ 1 nM,"CC1=C(c2cccc(O)c2)C(c2ccc(OC[C@H](C)N3CCC[C@@H]3C)cc2)Oc2ccc(O)cc21 (stereo partly drawn) [Example 24, 3-(3-Hydroxyphenyl)-4-methyl-2-(4-((S)-2-((S)-2-methylpyrrolidin-1-yl)propoxy)phenyl)-2H-chromen-6-ol]",+ (+ = a single % value <50%)

# — patent US9078871B2, “Estrogen receptor modulators and uses thereof” (SERAGON PHARMACEUTICALS, INC., priority 2010, dated 2015)
